Measurements taken from article PMC8715118, “Assessing potentiation of the (α4)3(β2)2 nicotinic acetylcholine receptor by the allosteric agonist CMPI” (The Journal of Biological Chemistry, 2021).
Values joined by “and” are separate entries in the source; they are usually repeats but may differ in a detail not shown here. Equal entries are not always repeated. Where two headings read alike, the source gives them in different places. Values belong to the compound of their own block, whether it stands above or below them.

What was measured:
Type in all cases: cell-based
(α4)3(β2)2 nAChR [1] = molecular target: T1, (α4)3(β2)2 nAChR (Homo sapiens, UniProt P17787+P43681); assay: Two-electrode voltage-clamp whole-cell currents, Xenopus oocytes expressing WT (α4)3(β2)2 nAChR
T1 construct: expressed in transfected cells; host or cells: Xenopus laevis oocytes injected with cRNA, 8:1 α4:β2
T1 sequence (P43681 27-627): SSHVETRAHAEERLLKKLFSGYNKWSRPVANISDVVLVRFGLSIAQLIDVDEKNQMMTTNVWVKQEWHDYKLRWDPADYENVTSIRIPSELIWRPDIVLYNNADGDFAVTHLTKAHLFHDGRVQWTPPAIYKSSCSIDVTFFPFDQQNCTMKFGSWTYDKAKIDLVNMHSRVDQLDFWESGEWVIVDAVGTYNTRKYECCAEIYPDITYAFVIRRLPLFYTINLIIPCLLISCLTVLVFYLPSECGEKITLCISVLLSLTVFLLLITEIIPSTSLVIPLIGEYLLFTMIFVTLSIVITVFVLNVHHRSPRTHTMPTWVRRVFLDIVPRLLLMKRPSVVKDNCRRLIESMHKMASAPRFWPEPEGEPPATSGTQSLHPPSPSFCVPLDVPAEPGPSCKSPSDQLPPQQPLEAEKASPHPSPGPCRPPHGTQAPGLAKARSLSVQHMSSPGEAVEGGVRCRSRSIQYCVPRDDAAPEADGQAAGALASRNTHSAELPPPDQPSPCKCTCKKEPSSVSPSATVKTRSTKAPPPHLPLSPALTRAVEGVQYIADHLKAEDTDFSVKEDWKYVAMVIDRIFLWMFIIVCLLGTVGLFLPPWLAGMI
T1 sequence (P17787 26-502): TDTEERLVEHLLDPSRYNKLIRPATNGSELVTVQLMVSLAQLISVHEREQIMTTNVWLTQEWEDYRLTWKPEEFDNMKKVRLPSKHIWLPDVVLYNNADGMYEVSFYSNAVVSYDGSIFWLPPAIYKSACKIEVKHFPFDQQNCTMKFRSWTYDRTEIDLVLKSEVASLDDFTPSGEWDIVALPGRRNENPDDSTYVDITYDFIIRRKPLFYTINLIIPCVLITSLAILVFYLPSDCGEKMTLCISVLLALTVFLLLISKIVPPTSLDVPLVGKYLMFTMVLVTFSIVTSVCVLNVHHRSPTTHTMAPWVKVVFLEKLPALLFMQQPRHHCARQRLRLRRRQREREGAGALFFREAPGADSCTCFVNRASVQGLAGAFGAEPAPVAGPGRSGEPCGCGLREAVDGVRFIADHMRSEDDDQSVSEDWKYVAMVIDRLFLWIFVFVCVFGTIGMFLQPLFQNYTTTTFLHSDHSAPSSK
Experimental: (§1) Oocytes-positive female Xenopus laevis were purchased from NASCO, and all procedures were performed according to an animal use protocol approved by the Institutional Animals Care and Use Committee of The University of Texas Health Science Center at Tyler. Ovarian lobules were surgically harvested, treated with collagenase type 2, and Stage V and VI oocytes were visually selected and maintained at 18 °C in modified ND96-gentamicin buffer (96 mM NaCl, 2 mM KCl, 1.8 mM CaCl2, 1 mM MgCl2, 5 mM Hepes, and 50 μg/ml gentamicin, pH 7.6).
(§2) pSP64 Poly(A) plasmids with cDNA encoding for human α4 or β2 nAChR subunit were used to prepare cRNA transcripts suitable for oocyte expression. The plasmids were linearized with AseI (hα4) and PvuII (hβ2), then cRNA transcripts were prepared in vitro using mMESSAGE mMACHINE high yield-capped RNA transcription kits (Ambion, Thermo Fisher Scientific), purified on NucAway Spin column (Invitrogen, Thermo Fisher Scientific), and stored at −80 °C until used. Point mutations within the plasmid encoding the α4 nAChR subunit were introduced using QuikChange II Site-Directed Mutagenesis Kit (Agilent Technologies), as described previously ([28]). To generate amino acid substitutions (K64T, E66I, H116V, H116L, and H116A), two custom-designed complementary oligos containing the desired mutation were used (Integrated DNA Technologies). The forward primers were as the following with the codon for mutated amino acids are underlined and nucleotide(s) changes are bolded and italicized:
(§3) The oocytes were injected with 10 to 50 ng of a cRNA mix containing α4 (WT or mutant) and β2 RNAs at ratios of 8:1(α4:β) or 1:8 (α4:β2) to bias expression toward (α4)3(β2)2 or (α4)2(β2)3 nAChRs, respectively. The injection of oocytes with RNAs mixture containing four folds or higher α4 RNA than β2 RNA have been established to express receptor population that is made up of three α4 and two β2 subunits ([9], [12], [28], [43], [44], [45]).
(§4) 24 to 72 h after cRNA injection, Xenopus oocytes were placed in a custom-made recording chamber that is connected to an eight-channel automated perfusion system (Warner Instruments) and perfused with recording buffer (100 mM NaCl, 2 mM KCl, 1 mM CaCl2, 0.8 mM MgCl2, 1 mM EGTA, and 10 mM Hepes, pH 7.5). Unless otherwise specified in figure legends, each recording run included several drug applications (10 s of an agonist with or without CMPI or NS9283) separated by 3 to 4 min buffer wash intervals. Between recording runs, the oocytes were washed with recording buffer for at last 5 min. The oocytes were voltage-clamped at −50 mV using Oocyte Clamp OC-725B (Warner Instruments). The currents were digitized using Digidata 1550A (Axon Instruments, Molecular Devices), and the peak currents were quantified using pCLAMP 10 (Axon Instruments), then normalized and analyzed using Excel 2010 (Microsoft) and SigmaPlot 11.0 (Systat Software). For NS9283 and CMPI potentiation of agonist-induced responses, the peak currents were normalized to current elicited by agonist alone applied within the same recording run. For the effect of coapplication of 1 μM NS9283 or CMPI on agonist concentration-response curve, the peak currents were normalized to current elicited by saturating concentration of agonist applied within the same recording run. […] I0 = 100 for NS9283 and CMPI potentiation of agonist-induced responses and I0 = 0 for agonist concentration-response experiments. The best-fit values for Imax and EC50 ± SD are presented.

(α4K64T)3(β2)2 nAChR = molecular target: T2, (α4K64T)3(β2)2 nAChR (Homo sapiens, UniProt P17787+P43681, K90T); assay: Two-electrode voltage-clamp, oocytes expressing (α4K64T)3(β2)2 nAChR
T2 construct: expressed in transfected cells; host or cells: Xenopus laevis oocytes injected with cRNA, 8:1 α4:β2
T2 sequence (P43681 27-627 K90T): as the sequence (P43681 27-627) above, with K64T counted along it
T2 sequence (P17787 26-502): as the sequence (P17787 26-502) above
Experimental: as §1, §2, §3
(§5) 24 to 72 h after cRNA injection, Xenopus oocytes were placed in a custom-made recording chamber that is connected to an eight-channel automated perfusion system (Warner Instruments) and perfused with recording buffer (100 mM NaCl, 2 mM KCl, 1 mM CaCl2, 0.8 mM MgCl2, 1 mM EGTA, and 10 mM Hepes, pH 7.5). Unless otherwise specified in figure legends, each recording run included several drug applications (10 s of an agonist with or without CMPI or NS9283) separated by 3 to 4 min buffer wash intervals. Between recording runs, the oocytes were washed with recording buffer for at last 5 min. […] The currents were digitized using Digidata 1550A (Axon Instruments, Molecular Devices), and the peak currents were quantified using pCLAMP 10 (Axon Instruments), then normalized and analyzed using Excel 2010 (Microsoft) and SigmaPlot 11.0 (Systat Software). […]

(α4E66I)3(β2)2 nAChR = molecular target: T3, (α4E66I)3(β2)2 nAChR (Homo sapiens, UniProt P17787+P43681, E92I); assay: Two-electrode voltage-clamp, oocytes expressing (α4E66I)3(β2)2 nAChR
T3 construct: expressed in transfected cells; host or cells: Xenopus laevis oocytes injected with cRNA, 8:1 α4:β2
T3 sequence (P43681 27-627 E92I): as the sequence (P43681 27-627) above, with E66I counted along it
T3 sequence (P17787 26-502): as the sequence (P17787 26-502) above
Experimental: as §1, §2, §3, §5

(α4H116A)3(β2)2 nAChR = molecular target: T4, (α4H116A)3(β2)2 nAChR (Homo sapiens, UniProt P17787+P43681, H142A); assay: Two-electrode voltage-clamp, oocytes expressing (α4H116A)3(β2)2 nAChR; conditions: 1 μM modulator
T4 construct: expressed in transfected cells; host or cells: Xenopus laevis oocytes injected with cRNA, 8:1 α4:β2
T4 sequence (P43681 27-627 H142A): as the sequence (P43681 27-627) above, with H116A counted along it
T4 sequence (P17787 26-502): as the sequence (P17787 26-502) above
Experimental: as §1, §2, §3, §4

(α4H116V)3(β2)2 nAChR = molecular target: T5, (α4H116V)3(β2)2 nAChR (Homo sapiens, UniProt P17787+P43681, H142V); assay: Two-electrode voltage-clamp, oocytes expressing (α4H116V)3(β2)2 nAChR
T5 construct: expressed in transfected cells; host or cells: Xenopus laevis oocytes injected with cRNA, 8:1 α4:β2
T5 sequence (P43681 27-627 H142V): as the sequence (P43681 27-627) above, with H116V counted along it
T5 sequence (P17787 26-502): as the sequence (P17787 26-502) above
Experimental: as §1, §2, §3, §5

(α4H116L)3(β2)2 nAChR = molecular target: T6, (α4H116L)3(β2)2 nAChR (Homo sapiens, UniProt P17787+P43681, H142L); assay: Two-electrode voltage-clamp, oocytes expressing (α4H116L)3(β2)2 nAChR
T6 construct: expressed in transfected cells; host or cells: Xenopus laevis oocytes injected with cRNA, 8:1 α4:β2
T6 sequence (P43681 27-627 H142L): as the sequence (P43681 27-627) above, with H116L counted along it
T6 sequence (P17787 26-502): as the sequence (P17787 26-502) above
Experimental: as §1, §2, §3, §5

(α4)3(β2)2 nAChR [2] = molecular target: T1, (α4)3(β2)2 nAChR; assay: Mechanistic (Monod-Wyman-Changeux two-state model) analysis of current responses, WT (α4)3(β2)2 nAChR; conditions: WT
Source text: To gain mechanistic insight into receptor activation in the presence of CMPI, we analyzed the currents in the framework of a cyclic two-state (resting and active) allosteric activation model ([31], [32], [33]). In this model, channel opening is mediated by stabilization of the active state by an agonist that, by definition, has higher affinity to the active than resting state.
We commenced by converting the raw amplitudes of current responses to units of probability of being in the active state (PA units).
Further analysis of electrophysiological data was conducted in the framework of the two-state concerted transition model, adapted from the MWC cyclic model originally used to describe enzyme function ([31], [32], [33]). The raw peak amplitudes of current responses were converted to units of probability of being in the active state (PA).
The numbers of α4:β2 and α4:α4 binding sites (Nα4:β2 and Nα4:α4) were constrained to 2 and 1, respectively.
The concentration-response curve for TC-2559 was fitted to the following equation:(3) PA=1/1+L[1+[TC-2559]/KR,TC-2559,α4:β2/1+[TC-2559]/(KR,TC-2559,α4:β2cTC-2559,α4:β2)]^Nα4:β2
The concentration-response data were analyzed using Equation 3, with the value of L modified to reflect receptor activation by TC-2559, and the affinity and efficacy terms in the equation reflecting the values for CMPI. The number of binding sites for CMPI in Equation 3 was constrained to 1.
Curve fitting was done using Origin 2020 (OriginLab Corp). The results are reported as best-fit parameter ±SD of the fit. All data are included in the analysis.

maximal potentiation ((α4)3(β2)2 nAChR [1]; 1 μM TC-2559): 1800 ± 307%
effect on responses to agonists at subsaturating concentrations ((α4)3(β2)2 nAChR [1]; 1 μM modulator, ACh, nicotine, cytisine, TC-2559, p < 0.001): potentiated
effect on responses to saturating concentrations of the tested agonists ((α4)3(β2)2 nAChR [1]; 1 μM modulator, except for TC-2559): did not potentiate
maximal potentiation ((α4)3(β2)2 nAChR [1]; 10 μM TC-2559): 1522 ± 41%
potentiation fold (Ave ± SD), agonist + 1 μM modulator / agonist alone ((α4)3(β2)2 nAChR [1]; ACh (1 mM), 1 μM modulator): 1.00 ± 0.04
potentiation fold (Ave ± SD), agonist + 1 μM modulator / agonist alone ((α4)3(β2)2 nAChR [1]; TC 2559 (30 μM), 1 μM modulator): 5.05 and 5.05 ± 1.66
EC50 ((α4)3(β2)2 nAChR [1]; responses induced by 1 μM TC-2559, read-out: potentiation EC50): 1900 ± 200 nM
EC50 ((α4)3(β2)2 nAChR [1]; responses induced by 10 μM TC-2559, read-out: potentiation EC50): 1800 ± 120 nM
potentiation fold (Ave ± SD), agonist + 1 μM modulator / agonist alone ((α4K64T)3(β2)2 nAChR; ACh (1 mM)): 1.10 ± 0.08
potentiation fold (Ave ± SD), agonist + 1 μM modulator / agonist alone ((α4K64T)3(β2)2 nAChR; TC 2559 (30 μM)): 4.72 ± 2.27
potentiation fold (Ave ± SD), agonist + 1 μM modulator / agonist alone ((α4E66I)3(β2)2 nAChR; ACh (1 mM)): 0.95 ± 0.07
potentiation fold (Ave ± SD), agonist + 1 μM modulator / agonist alone ((α4E66I)3(β2)2 nAChR; TC 2559 (30 μM)): 2.68 ± 1.08
potentiation fold (Ave ± SD), agonist + 1 μM modulator / agonist alone ((α4H116A)3(β2)2 nAChR; ACh (1 mM)): 0.98 ± 0.03
potentiation fold (Ave ± SD), agonist + 1 μM modulator / agonist alone ((α4H116A)3(β2)2 nAChR; TC 2559 (30 μM)): 0.93 ± 0.12
potentiation fold (Ave ± SD), agonist + 1 μM modulator / agonist alone ((α4H116V)3(β2)2 nAChR; ACh (1 mM)): 0.90 ± 0.02
potentiation fold (Ave ± SD), agonist + 1 μM modulator / agonist alone ((α4H116V)3(β2)2 nAChR; TC 2559 (30 μM)): 0.87 ± 0.06
potentiation fold (Ave ± SD), agonist + 1 μM modulator / agonist alone ((α4H116L)3(β2)2 nAChR; ACh (1 mM)): 0.95 ± 0.03
potentiation fold (Ave ± SD), agonist + 1 μM modulator / agonist alone ((α4H116L)3(β2)2 nAChR; TC 2559 (30 μM)): 1.18 ± 0.17
SMILES: N#Cc1cccc(-c2nc(-c3cccnc3)no2)c1 [NS9283, 3-[3-(3-pyridinyl)-1,2,4-oxadiazol-5-yl]benzonitrile]

SMILES: O=c1cccc2n1C[C@@H]1CNC[C@H]2C1 [cytisine]
current response produced by a saturating concentration (100 μM), % of current elicited by 1 mM ACh ((α4)3(β2)2 nAChR [1]; 100 μM agonist): 10 ± 1%
I100 μM cytisine + 1 μM CMPI ((α4)3(β2)2 nAChR [1]; % of 100 μM cytisine alone): 91 ± 5%
I100 μM cytisine + 1 μM NS9283 ((α4)3(β2)2 nAChR [1]; % of 100 μM cytisine alone, data not shown): 113 ± 9%
EC50 ((α4)3(β2)2 nAChR [1]; agonist alone, read-out: agonist EC50): 11000 ± 6000 nM
current response at subsaturating concentration, % of the current response to 1 mM ACh ((α4)3(β2)2 nAChR [1]; subsaturating (1 μM) agonist): 2.3 ± 0.4%
Kd ((α4)3(β2)2 nAChR [2]; KR, equilibrium dissociation constant in the resting receptor, α4:α4 site): 8300 ± 500 nM
Kd ((α4)3(β2)2 nAChR [2]; read-out: KR, equilibrium dissociation constant in the resting receptor, α4:β2 site): 630 ± 1240 nM
c, ratio of equilibrium dissociation constants active/resting receptor ((α4)3(β2)2 nAChR [2]; α4:α4 site): 0.155 ± 0.104
c, ratio of equilibrium dissociation constants active/resting receptor ((α4)3(β2)2 nAChR [2]; α4:β2 site): 0.875 ± 0.029
